Values quoted from earlier work as cited in patent publication US11166974B2, “Ophthalmic solution comprising Diquafosol” (Santen Pharmaceutical Co., Ltd., priority 2012, dated 2021).

Tested on: corneal epithelium disorder of dry eye patients
Conditions: instillation of an ophthalmic solution; NPD 1

Q: With O=c1ccn([C@@H]2O[C@H](COP(=O)([O-])OP(=O)([O-])OP(=O)([O-])OP(=O)([O-])OC[C@H]3O[C@@H](n4ccc(=O)[nH]c4=O)[C@H](O)[C@@H]3O)[C@@H](O)[C@H]2O)c(=O)[nH]1.[Na+].[Na+].[Na+].[Na+] [diquafosol tetrasodium salt] as the compound, how does the “corneal epithelium disorder of dry eye patients” value read?
A: improved corneal epithelium disorder
